Like-named read-outs stand apart in the source and are kept apart here. Marks after values point to notes of the source that are not given here.
How the values were obtained:
[1] = test system: human breast cancer (MX-1); type: in vivo, female nude mice; conditions: for T/C: tumor volume
Protocol: A patch of human breast cancer [cancer cells recommended by National Cancer Institute (NCI) of U.S.A.] (MX-1) measuring approximately 2 x 2 mm in area was transplanted to female nude mice 5 weeks old. For 10 days following the 17th day of the transplantation, an aqueous solution containing 1% by weight of the aforementioned isopropylammonium polymolybdate (Compound A) was administered continuously at a dose of 100 mg/kg or 200 mg/kg once per day by intraperitoneal injection (ip). After the stop of the administration, the volume of tumor was measured daily for 15 or 20 days to evaluate the effect of the compound. With either of the dose of 100 mg/kg and the dose of 200 mg/kg, significant suppression of hyperplasia began to appear around the 6th day of administration of ip (x 10). Even after the stop of the administration (25th or 30th day), a distinct suppression of cancerous hyperplasia of about 70% was retained. Generally, by the NCI standard, a ratio of suppression exceeding 50% is rated as effective. […] For comparison, similar mice to which the human cancer was transplanted and the aqueous solution was not administered were tested by following the procedure described above.

breast cancer (MX-1) = type: in vivo, female nude mice; conditions: 100 mg/kg ip ×10; for T/C: tumor volume
Protocol: A patch of breast cancer [cancer cells recommended by National Cancer Institute (NCI) of the U.S.A.] (MX-1) measuring approximately 2 x 2 mm in area was transplanted to each of female nude mice five weeks old. To the mice, an aqueous solution of the aforementioned heteropoly acid salt (Compound M) was administered at a dose of 100 mg/kg once a day by intraperitoneal injection for 10 consecutive days on elapse of 17 days following the transplantation of tumor (ip). For 15 days following the stop of the administration, the volumes of tumor in the mice were measured to evaluate the effect of compound. At ip (x 10), significant suppression of hyperplasia appeared around the 4th day and a strong supression of hyperplasia of cancer was maintained even after 25 days following the completion of transplantation. For comparison, mice to which no aqueous solution was administered were similarly tested.

[NH3C3H7(iso)]s (Mo7O24] • 3H2O [Compound A]
suppression of cancerous hyperplasia ([1]; 100 mg/kg and 200 mg/kg ip ×10, after the stop of the administration (25th or 30th day)): about 70% | Volume of tumor ([1]; 100 mg/kg ip ×10, 0 day): 278.3±22.0 mm^3 | Volume of tumor ([1]; 100 mg/kg ip ×10, 1 day): 283.3±50.8 mm^3 | T/C ([1]; 100 mg/kg ip ×10, 1 day): 67.3% | Volume of tumor ([1]; 100 mg/kg ip ×10, 2 day): 302.3±58.6 mm^3 | T/C ([1]; 100 mg/kg ip ×10, 2 day): 58.6% | Volume of tumor ([1]; 100 mg/kg ip ×10, 3 day): 324.7±123.5 mm^3 | T/C ([1]; 100 mg/kg ip ×10, 3 day): 60.5% | Volume of tumor ([1]; 100 mg/kg ip ×10, 4 day): 366.3±121.7 mm^3 | T/C ([1]; 100 mg/kg ip ×10, 4 day): 60.7% | Volume of tumor ([1]; 100 mg/kg ip ×10, 5 day): 413.7±168.8 mm^3 | T/C ([1]; 100 mg/kg ip ×10, 5 day): 57.8% | Volume of tumor ([1]; 100 mg/kg ip ×10, 6 day): 366.0±121.3 mm^3 | T/C ([1]; 100 mg/kg ip ×10, 6 day): 44.2** % | Volume of tumor ([1]; 100 mg/kg ip ×10, 7 day): 302.7±173.5 mm^3 | T/C ([1]; 100 mg/kg ip ×10, 7 day): 33.3** % | Volume of tumor ([1]; 100 mg/kg ip ×10, 9 day): 397.3±226.9 mm^3 | T/C ([1]; 100 mg/kg ip ×10, 9 day): 36.9* % | Volume of tumor ([1]; 100 mg/kg ip ×10, 10 day): 406.7±202.6 mm^3 | T/C ([1]; 100 mg/kg ip ×10, 10 day): 29.7*** % | Volume of tumor ([1]; 100 mg/kg ip ×10, 15 day): 734.0±524.0 mm^3 | T/C ([1]; 100 mg/kg ip ×10, 15 day): 33.3* % | Volume of tumor ([1]; 100 mg/kg ip ×10, 19 day): 994.0±613.0 mm^3 | T/C ([1]; 100 mg/kg ip ×10, 19 day): 37.4* % | Volume of tumor ([1]; 100 mg/kg ip ×10, 21 day): 1039.0±646.0 mm^3 | T/C ([1]; 100 mg/kg ip ×10, 21 day): 30.0* % | Volume of tumor ([1]; 100 mg/kg ip ×10, 25 day): 1301.0±912.3 mm^3 | T/C ([1]; 100 mg/kg ip ×10, 25 day): 32.6* % | Volume of tumor ([1]; 200 mg/kg ip ×10, 1 day): 371.8±10.8 mm^3 | Volume of tumor ([1]; 200 mg/kg ip ×10, 2 day): 439.8±56.9 mm^3 | Volume of tumor ([1]; 200 mg/kg ip ×10, 4 day): 518.8±54.7 mm^3 | T/C ([1]; 200 mg/kg ip ×10, 4 day): 62.1* % | Volume of tumor ([1]; 200 mg/kg ip ×10, 5 day): 610.5±15.2 mm^3 | T/C ([1]; 200 mg/kg ip ×10, 5 day): 55.9* % | Volume of tumor ([1]; 200 mg/kg ip ×10, 6 day): 656.8±25.7 mm^3 | T/C ([1]; 200 mg/kg ip ×10, 6 day): 62.9**** % | Volume of tumor ([1]; 200 mg/kg ip ×10, 7 day): 759.3±84.3 mm^3 | T/C ([1]; 200 mg/kg ip ×10, 7 day): 54.5** % | Volume of tumor ([1]; 200 mg/kg ip ×10, 8 day): 852.0±126.7 mm^3 | T/C ([1]; 200 mg/kg ip ×10, 8 day): 58.1* % | Volume of tumor ([1]; 200 mg/kg ip ×10, 9 day): 695.7±29.6 mm^3 | T/C ([1]; 200 mg/kg ip ×10, 9 day): 42.4*** % | Volume of tumor ([1]; 200 mg/kg ip ×10, 10 day): 759.7±21.1 mm^3 | T/C ([1]; 200 mg/kg ip ×10, 10 day): 41.9** % | Volume of tumor ([1]; 200 mg/kg ip ×10, 11 day): 816.7±16.7 mm^3 | T/C ([1]; 200 mg/kg ip ×10, 11 day): 39.3** % | Volume of tumor ([1]; 200 mg/kg ip ×10, 13 day): 1070.0±41.0 mm^3 | T/C ([1]; 200 mg/kg ip ×10, 13 day): 39.9*** % | Volume of tumor ([1]; 200 mg/kg ip ×10, 16 day): 1110.0±21.0 mm^3 | T/C ([1]; 200 mg/kg ip ×10, 16 day): 34.5*** % | Volume of tumor ([1]; 200 mg/kg ip ×10, 18 day): 1446.0±75.0 mm^3 | T/C ([1]; 200 mg/kg ip ×10, 18 day): 33.9*** % | Volume of tumor ([1]; 200 mg/kg ip ×10, 19 day): 1405.0±159.8 mm^3 | T/C ([1]; 200 mg/kg ip ×10, 19 day): 29.9*** % | Volume of tumor ([1]; 200 mg/kg ip ×10, 22 day): 1583.3±145.2 mm^3 | T/C ([1]; 200 mg/kg ip ×10, 22 day): 30.9*** % | Volume of tumor ([1]; 200 mg/kg ip ×10, 25 day): 1708.0±243.2 mm^3 | T/C ([1]; 200 mg/kg ip ×10, 25 day): 29.2*** % | Volume of tumor ([1]; 200 mg/kg ip ×10, 30 day): 2033.7±430.9 mm^3 | T/C ([1]; 200 mg/kg ip ×10, 30 day): 27.2*** %

Nas [IMo6O24] • 34H2O [Compound M]
Average volume of tumor, Average ±SE (breast cancer (MX-1); day 1): 333.2±25.0 mm^3 | Average volume of tumor, Average ±SE (breast cancer (MX-1); day 2): 404.7±16.5 mm^3 | T/C (breast cancer (MX-1); day 2): 90.9% | Average volume of tumor, Average ±SE (breast cancer (MX-1); day 3): 510.0±38.8 mm^3 | T/C (breast cancer (MX-1); day 3): 88.6% | Average volume of tumor, Average ±SE (breast cancer (MX-1); day 4): 575.0±14.4 mm^3 | T/C (breast cancer (MX-1); day 4): 85.9* % | Average volume of tumor, Average ±SE (breast cancer (MX-1); day 5): 555.2±44.7 mm^3 | T/C (breast cancer (MX-1); day 5): 74.7** % | Average volume of tumor, Average ±SE (breast cancer (MX-1); day 6): 565.5±36.7 mm^3 | T/C (breast cancer (MX-1); day 6): 76.1** % | Average volume of tumor, Average ±SE (breast cancer (MX-1); day 7): 616.7±20.3 mm^3 | T/C (breast cancer (MX-1); day 7): 64.3 **** % | Average volume of tumor, Average ±SE (breast cancer (MX-1); day 8): 786.0±40.0 mm^3 | T/C (breast cancer (MX-1); day 8): 75.4*** % | Average volume of tumor, Average ±SE (breast cancer (MX-1); day 9): 869.0±33.2 mm^3 | T/C (breast cancer (MX-1); day 9): 63.6*** % | Average volume of tumor, Average ±SE (breast cancer (MX-1); day 10): 957.9±38.1 mm^3 | T/C (breast cancer (MX-1); day 10): 64.8*** % | Average volume of tumor, Average ±SE (breast cancer (MX-1); day 11): 1092.7±32.4 mm^3 | T/C (breast cancer (MX-1); day 11): 69.5*** % | Average volume of tumor, Average ±SE (breast cancer (MX-1); day 15): 1540.5±106.6 mm^3 | T/C (breast cancer (MX-1); day 15): 61.7** % | Average volume of tumor, Average ±SE (breast cancer (MX-1); day 18): 1821.0±127.4 mm^3 | T/C (breast cancer (MX-1); day 18): 61.5*** % | Average volume of tumor, Average ±SE (breast cancer (MX-1); day 21): 2182.0±148.6 mm^3 | T/C (breast cancer (MX-1); day 21): 64.5*** % | Average volume of tumor, Average ±SE (breast cancer (MX-1); day 25): 2671.7±154.5 mm^3 | T/C (breast cancer (MX-1); day 25): 73.0** %

Reference: EP0412158A1, “ONCOSTATIC DRUG” (priority 1987, dated 1988)
